The results in this text go back to PubChem BioAssay AID463074 (Broad Institute, 2010).

Active and inactive are the calls of the source.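 Rule for the calls: active = AC50 no more than tenfold above the top dose tested, or full inhibition at every dose with a flat fit (cut at about 19 µM in these data); inconclusive = flat curve fit with inhibition between 30% and 70%, or poor fit; inactive = AC50 more than tenfold above the top dose tested.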 Where only a bound is given, the exact number is not on record here.

This assay concerns HMLE_sh_eGFP viability, CellTiter-Glo luminescence, 72 h. The assay is described as follows: viability loss of HMLE_sh_eGFP cells – cell-based, luminescence, counter-screen for HMLE_sh_ECad selective toxicity project, dose response (AID 463074).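 Note: counterscreen control line to flag general toxicity for the HMLE_sh_ECad screen; potency for loss of viability as luminescence drops below DMSO wells.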
Turning to `ClC1=C(Cl)C2(Cl)C3C(Cl)C=CC3C1(Cl)C2(Cl)Cl` (configuration not stated), the AC50 is 6.29 µM.

For the molecule `O=C(NNC(=O)c1cc(Cl)ccc1O)c1ccc(NS(=O)(=O)c2cccs2)cc1`, the concentration at half-maximal activity (AC50) is 8.13 µM.

As to `Oc1ccc(N=Nc2ccc3ccccc3c2)cc1`, the concentration at half-maximal activity (AC50) was 7.43 µM.

As to `Cc1c(O)cccc1C(=O)N[C@@H](CSc1ccccc1)[C@H](O)CN1C[C@H]2CCCC[C@H]2C[C@H]1C(=O)NC(C)(C)C`, the AC50 is 7.33 µM. With `C=CCn1c(CNc2ccccc2)nnc1SCC(=O)N/N=C/c1ccc(O)cc1O`, the half-maximal activity concentration (AC50) was 3.23 µM.

On to `O=C(Nc1ccc(Br)c(C(F)(F)F)c1)c1ccc(C(F)(F)F)cc1`, for which the concentration at half-maximal activity (AC50) is 3.03 µM.

With `O=C(CN1CCCC1)Nc1ccc(Cl)cc1C(=O)c1ccccc1`, the AC50 is 15.3 µM. The same measure for `CCOC(=O)C(C)(C)N(Cc1ccc(Cl)cc1)S(=O)(=O)c1ccc(Cl)c([N+](=O)[O-])c1`: 2.5 µM.

Consider `COc1ccc(C)cc1NC(=O)c1ccccc1NS(=O)(=O)c1ccc(Cl)s1`, for which the AC50 was 7.89 µM.

Regarding `CCOC(=O)c1c(NC(=O)CSc2nc3ccc(C)cc3[nH]2)sc2c1CC(C)(C)NC2(C)C`, the AC50 is 6.64 µM. The same measure for `C#CCOCCOCCOCCNc1nc(N2CCN(C(=O)CCCCCCCCCCNC(=O)Cn3cc(C[C@@H](C)O)nn3)CC2)nc(N2CCN(C(=O)CCCCCCCCCCNC(=O)[C@@H]([C@H](C)O)n3cc(C)nn3)CC2)n1`: 4.83 µM. In the case of `O=C(N/N=C/c1ccc(Cl)c([N+](=O)[O-])c1)c1cc(-c2ccccc2)nc2ccccc12`, the AC50 was 4.52 µM. With `O=C(Oc1ccc(-c2nc(-c3ccccn3)no2)cc1)c1ccccc1`, the AC50 was 1.63 µM. Consider `Cc1cccc(N/N=C/c2ccccc2O)c1`, for which the AC50 is 18.6 µM.

`C[C@H](CO)N1C[C@H](C)[C@@H](CN(C)S(=O)(=O)c2ccc(F)cc2)Oc2ccc(NC(=O)Nc3ccc(C(F)(F)F)cc3)cc2C1=O`: the AC50 is 17.1 µM.

For the molecule `O=C(Nc1ccccc1)NN(C(=O)CCl)c1ccccc1`, the AC50 was 6.45 µM. As for `CC(=O)Nc1ccc(SCC(=O)c2cc(C)n(Cc3cccs3)c2C)cc1`, the AC50 is 4.66 µM. The same measure for `CC1CCCN(c2ccc(C(=O)N3CCC4(CC3)OCCO4)cc2[N+](=O)[O-])C1` (configuration not stated): 7.96 µM; for `Cc1ccc(Oc2nc(CN3CCOCC3)nc3sc4c(c23)CCC(C)C4)cc1C` (configuration not stated): 6.32 µM; for `CC/C(=N\Nc1ccccc1)c1c(O)n(-c2ccccc2)c(=O)[nH]c1=O`: 2.16 µM. The same measure for `COc1cc(/C=C2/CCC/C(=C\c3cc(O)c(OC)c(Cl)c3)C2=O)cc(Cl)c1O`: 0.768 µM; for `CCN(CC)S(=O)(=O)c1ccc2c(c1)C(=NO)c1cc(S(=O)(=O)N(CC)CC)ccc1-2`: 0.756 µM; for `CCCCCc1cc(=O)oc2c(C(CCN3CCCCC3)c3ccc4c(c3)OCO4)c(OC)cc(OC)c12` (configuration not stated): 6.89 µM. The same measure for `Nc1cc(Cl)ccc1Oc1ccc2ccccc2c1`: > 10 µM (inactive); for `Cc1ccccc1N1CCN(C(=O)c2ccc(Oc3ccc(C(F)(F)F)cn3)cc2)CC1`: 4.66 µM. In the case of `O=C(Nc1cccc(Cl)c1N1CCCC1)c1cccc(-c2cc3ccccc3oc2=O)c1`, the half-maximal activity concentration (AC50) was 0.869 µM.

`O/N=C(\c1ccc(Cl)cc1Cl)c1ncc(C(F)(F)F)cc1Cl`: the AC50 was 13.9 µM. Consider `FC(F)(F)c1cc(-c2ccc(Cl)cc2)nc(NCc2cccnc2)n1`, for which the AC50 is 14 µM. For `CCOc1cc(/C=C2/SC(=S)N(Cc3ccccc3)C2=O)ccc1O`, the AC50 is 3.76 µM. The same measure for `Cc1cc(C)cc(CC(Cc2nc3ccccc3[nH]2)c2nc3ccccc3[nH]2)c1` (configuration not stated): 7.82 µM. Take `S=c1[nH]nc(COc2ccccc2)n1/N=C/C(Cl)=C/c1ccccc1`: the AC50 is 3.55 µM. Consider `CC(NS(=O)(=O)OCC(Cl)(Cl)Cl)c1ccc(C(C)(C)C)cc1` (configuration not stated), for which the AC50 is 3.57 µM.

Regarding `COc1ccc2nc(NC(=O)c3cccc(-c4cc5ccccc5oc4=O)c3)sc2c1`, the AC50 is 4.88 µM. The same measure for `CC(=O)N1c2ccc(Cl)cc2C2C=CCC2C1c1cccc2ccccc12` (configuration not stated): 5.36 µM; for `CCc1c(C2(O)CCCCC2)[nH]c2ccc(C(F)(F)F)cc12`: 3.56 µM. The same measure for `COc1cccc(/C=N/NC(=O)c2[nH]c(C)c(C(=O)N/N=C/c3cccc(OC)c3O)c2C)c1O`: 4.53 µM; for `CC(C)CC(=O)NC(NC(=S)Nc1sc2c(c1C#N)CCCC2)C(Cl)(Cl)Cl` (configuration not stated): 10.6 µM; for `CCOC(=O)c1sc(NC(=O)Nc2ccccc2Cl)cc1C`: 7.58 µM. The same measure for `COc1ccc(CC2S/C(=N/N=C/c3ccccc3O)NC2=O)cc1` (configuration not stated): 19.2 µM; for `CC/C(=N\Nc1ccccc1)c1c(O)n(-c2ccc(OC)cc2)c(=O)[nH]c1=O`: 2.13 µM; for `COc1cc(OC)cc(-c2sc3ccc(OC)cc3c2C#CC2(N)CCCCC2)c1`: 3.23 µM. As to `COc1ccc(-c2sc3cc4c(cc3c2-c2ccc(OCCN3CCOCC3)cc2)OCO4)cc1`, the AC50 was 0.254 µM. The same measure for `Nc1c(C(O)(C(F)(F)F)C(F)(F)F)cc(C(O)(C(F)(F)F)C(F)(F)F)c2ccccc12`: 3.95 µM. In the case of `CCOC(=O)[C@@H]1[C@H]2COc3cc(OC)ccc3[C@H]2N2C(=O)N(c3ccc(C(F)(F)F)cc3)C(=O)[C@]12C`, the AC50 is 4.62 µM. The same measure for `OCCCCC#Cc1c(-c2ccsc2)sc2ccccc12`: 5.56 µM. The same measure for `CS(=O)(=O)Nc1ccccc1C(=O)Nc1cccc(Cl)c1`: > 19.5 µM (inactive); for `CCOC(=O)c1c2ccc(OCC(=O)N/N=C/c3ccc(C)cc3)cc2n2ccccc12`: 11.8 µM; for `CCc1ccc(-c2cc3c(=O)n(CC(=O)NCCN4CCCCC4C)nc(C)n3n2)cc1` (configuration not stated): 5.23 µM. For `Cc1cc(-c2ccccc2)nc(N/N=C/c2ccc(O)cc2O)n1`, the half-maximal activity concentration (AC50) was 7.96 µM. In the case of `Cn1nc([N+](=O)[O-])c(C(C#N)c2ccccn2)c(Cl)c1=O` (configuration not stated), the AC50 was 15.3 µM. The same measure for `CCCOc1ccc2c(c1)C(=NN=C(N)N)c1cc(OCCC)ccc1-2`: 3.7 µM; for `COc1cccc(/C=N/NC(=O)CSc2nnc(C)n2-c2ccccc2)c1O`: 5.01 µM; for `CC(C)(c1ccccc1)c1ccc(OCCN2CCCC2)cc1`: 0.903 µM. As to `COc1ccc(-c2cc(=O)n(-c3ccc([N+](=O)[O-])cc3)[nH]2)cc1`, the half-maximal activity concentration (AC50) was 11.3 µM.

As to `Cc1cc(Nc2cccc(Cl)c2)nc(NCc2ccccc2)n1`, the AC50 is 3.73 µM. Turning to `Cc1nn(-c2nc3ccccc3s2)c(C)c1Oc1ccccc1O`, the AC50 is 5.71 µM.

Regarding `Cc1cc(C)c(C)c(S(=O)(=O)N2CCN(c3ccc(O)cc3)CC2)c1C`, the half-maximal activity concentration (AC50) was 10.7 µM. The same measure for `COc1cccc(-c2sc3ccccc3c2-c2ccc(OCCN3CCOCC3)cc2)c1`: 4.3 µM; for `O=C(N/N=C/c1cc(Br)ccc1O)C(=O)Nc1ccccc1OC(F)(F)C(F)F`: 3.6 µM; for `COc1ccc(/C=N/NC(=S)Nc2ccccc2[N+](=O)[O-])cc1O`: 5.87 µM. The same measure for `COc1ccccc1/C=C1\SC(=S)N(CCC(=O)NCCCn2ccnc2)C1=O`: 18.6 µM; for `CCCCCCCC/C=C\CCCCCCCC(=O)NCCc1ccc(O)c(O)c1`: 4.61 µM; for `O=Cc1ccc(Oc2cc(-c3ccccc3)nc(-c3ccccc3)n2)cc1`: 7.03 µM. The same measure for `Cc1ccc2nc(N(CCCN(C)C)C(=O)c3cc(-c4cccs4)nc4ccccc34)sc2c1`: 6.4 µM; for `C/C(N=Nc1nc2ccccc2s1)=N\Nc1ccccc1O`: 6.1 µM.

Turning to `O=C(c1cc(-c2cccc(O)c2)on1)N1CCN(C(c2ccccc2)c2ccccc2)CC1`, the AC50 is 3.11 µM. The same measure for `COc1ccc(OC)c(/C=C2\S/C(=N/NC(=O)c3ccc4ccccc4c3)NC2=O)c1`: 9.71 µM; for `CCNC(=S)N1N=C2c3ccccc3CCC2C1c1ccc(F)cc1` (configuration not stated): 2.91 µM. The same measure for `CCN(Cc1ccccc1)c1ccc(/C=N/NC(=S)NC(C)C)cc1`: 4.6 µM. In the case of `Cc1ccc(/C=N/NC(=O)CNC(=O)COc2ccccc2)o1`, the AC50 is > 19.5 µM (inactive). The same measure for `CC1(C)Cc2ccccc2/C(=C/C(=O)c2ccccc2)N1`: 7.27 µM; for `Cc1ccc(C)c(-c2csc(N)c2C(=O)OC(C)C)c1`: 8.52 µM; for `Cn1ncc2c(Nc3cccc(Cl)c3)nc(Nc3cccc(Cl)c3)nc21`: 3.71 µM. `COc1ccc(C(=O)/C=C/c2ccc(OCc3ccccc3)cc2)cc1CSCC(=O)O`: the AC50 is 5.81 µM.

In the case of `COc1cc(NS(C)(=O)=O)ccc1Nc1c2ccccc2nc2ccccc12`, the concentration at half-maximal activity (AC50) was 2.11 µM.

`COc1cc(OC)cc(-c2sc3ccc(OC)cc3c2C#CCCO)c1`: the AC50 is 7.93 µM. The same measure for `Cc1cccc(-c2cc3nc4c(c(NCc5ccco5)n3n2)CCCC4)c1`: 7.25 µM. The same measure for `Cc1cccc(C(=O)NNC2=C(C(=O)C(F)(F)F)CCC2)c1O`: 3.91 µM. The same measure for `CCCc1cc2c(=O)c(-c3ccc4c(c3)OCCO4)coc2cc1OC(=O)c1ccco1`: 10.9 µM; for `CC(=O)c1ccc(N2CCC(c3cc(-c4ccc(Cl)cc4Cl)n[nH]3)CC2)c([N+](=O)[O-])c1`: 4.17 µM. As to `CC(C)c1ccc2c(c1)c(SC(C)(C)C)c(CC(C)(C)C(=O)O)n2Cc1ccc(Cl)cc1`, the AC50 was 2 µM. The same measure for `Oc1ccc(Br)cc1/C=N/NC(=S)NCCc1ccccc1`: 4.19 µM; for `S=C1NC[C@H](Cc2ccccc2)N1CCCCC1CCCCC1`: 4.19 µM; for `Cn1cc([N+](=O)[O-])c(C(=O)Nc2ccc(-c3nc4ccccc4o3)cc2)n1`: 2.33 µM. The same measure for `CCc1c(C)sc2nc(C(C)C)nc(SCC(=O)N3CCc4ccccc4C3)c12`: 4.22 µM; for `CSc1nnc(NC(=O)c2nc(S(=O)(=O)Cc3ccccc3F)ncc2Cl)s1`: 2.92 µM. As to `COc1ccc(-c2sc3cc4c(cc3c2C#CC2(O)CCCCC2)OCO4)cc1`, the AC50 is 6.35 µM. The same measure for `Cc1cc(C)cc(NS(=O)(=O)c2ccc3[nH]cc(C(=O)NCc4ccco4)c(=O)c3c2)c1`: 1.5 µM. The same measure for `CCCCCc1cc(=O)oc2c(C(CCN3CCCC(C)C3)c3ccc4c(c3)OCO4)c(OC)cc(OC)c12` (configuration not stated): 6.78 µM. As for `CCCCNc1c(-c2ccc(OC)c(Sc3ccc(OC)cc3)c2)nc2ccccn12`, the AC50 is 4.55 µM. `COc1ccccc1/C=C1\S/C(=N/NC(=O)c2cccc(Br)c2)NC1=O`: the AC50 was 8.09 µM. The same measure for `COc1ccc(-c2sc3ccccc3c2-c2ccc(OCCN(C)C)cc2)cc1`: 3.38 µM.
